# In PMC7456963, “HPLC-Based Activity Profiling for Antiprotozoal Compounds in Croton gratissimus and Cuscuta hyalina” (Frontiers in Pharmacology, 2020):
# “And” between values parts separate entries of the source, which are not always exact repeats. Identical values can stand only once. Like-named read-outs stand apart in the source and are kept apart here.
# Assays:
# [1] = Cytotoxicity to macrophages determined in parallel to the intramacrophage assay; format: cell-based; details: CDI, surviving, uninfected mouse peritoneal macrophages
# Method: (§1) Macrophages were isolated from the mouse (CDI) peritoneal cavity ([Zhang et al., 2008]) using 2% starch solution as eliciting agent injected 2 day prior to cell harvest. Animal work was carried out according to the rules and regulations for the protection of animal rights (“Tierschutzverordnung”) of the Swiss “Bundesamt für Veterinärwesen” (License number 2374). Mouse peritoneal macrophages (4 × 10^4 in 100 µL RPMI 1640 medium with 10% heat-inactivated FBS) were seeded into wells of a 96-well plate. After 24 h, 2 × 10^5 amastigote L. donovani in 100 µL were added. The amastigotes were taken from an axenic amastigote culture grown at pH 5.4. The medium containing free amastigote forms was removed after 24 h and replaced with fresh medium. The washing step was repeated and afterward the serial drug dilution was prepared with at least 6 dilution steps. Compounds were dissolved in DMSO at 10 mg/ml and further diluted in medium. After 96 h of incubation at 37°C under a 5% CO2 atmosphere, the medium was removed, and cells were fixed by adding 50 µl 4% formaldehyde solution followed by a staining with a 5 µM DRAQ5 solution. Plates were imaged in ImageXpress XLS (MD) microscope using a 20× air objective (635 nm excitation: 690/50 emission). 9 images were collected per well. Automated image analysis was performed with a script developed on Meta Xpress Software (MD). Three outputs were provided for each well: i) number of host cell nuclei; ii) numbers of infected and non-infected host cells; iii) number of parasite nuclei per infected host cell. The IC50 values were calculated based on the infection rate and the numbers of intracellular amastigotes. The cytotoxicity to macrophages was determined in parallel, and IC50 values were calculated based on the numbers of surviving, uninfected macrophages. Miltefosine was used as control. Assays were performed in two independent replicates at least.
# [2] = tested on: L. donovani amastigotes in mouse peritoneal macrophages; assay: Activity against Leishmania donovani intramacrophage amastigotes (high-content imaging); format: cell-based; details: 96 h, read-out: IC50 L. donovani Intramacrophage
# Method: as §1
# [3] = tested on: L. donovani strain MHOM/ET/67/L82 axenic amastigotes; assay: Activity against Leishmania donovani axenic amastigotes (resazurin); format: cell-based; details: for IC50: mean ± absolute deviation, at least two replicates; for Selectivity index (SI): IC50 in L6 cells divided by IC50 in L. donovani axenic amastigotes: L6 cells vs axenic L. donovani
# Method: Amastigotes of L. donovani strain MHOM/ET/67/L82 were grown under an atmosphere of 5% CO2 in air in axenic culture at 37°C in SM medium ([Cunningham, 1977]) at pH 5.4 supplemented with 10% heat-inactivated fetal bovine serum. 50 µL of culture medium was added in the wells of a 96-well plate and serial drug dilutions of eleven three-fold dilution steps covering a final range from 100 to 0.002 μg/ml were prepared. 50 µL culture medium with 2 × 10^5 amastigotes from axenic culture were added to each well. After 70 h of incubation the plates were inspected under an inverted microscope to assure growth of the controls and sterile conditions. 10 μl of resazurin (12.5 mg resazurin dissolved in 100 ml distilled water) were added to each well and the plates incubated for another 2 h. Then the plates were read with a Spectramax Gemini XS microplate fluorometer (Molecular Devices Cooperation, Sunnyvale, CA, USA) using an excitation wavelength of 536 nm and an emission wavelength of 588 nm. Data were analyzed using the software Softmax Pro (Molecular Devices Cooperation, Sunnyvale, CA, USA). Decrease of fluorescence (= inhibition) was expressed as percentage of the fluorescence of untreated control cultures and plotted against the drug concentrations. From the sigmoidal inhibition curves the IC50 values were calculated. Miltefosine was used as positive control drug. Assays were performed in two independent replicates at least.
# [4] = tested on: T. b. rhodesiense STIB 900 bloodstream forms; assay: Activity against Trypanosoma brucei rhodesiense STIB900 (resazurin); format: cell-based; details: for Selectivity index (SI): IC50 in L6 cells divided by IC50 in T. b. rhodesiense: L6 cells vs T. b. rhodesiense STIB 900; for IC50: STIB 900 bloodstream forms, 70 h + resazurin, mean ± absolute deviation
# Method: The stock was originally isolated from a patient and adapted to axenic culture conditions after several mouse passages and cloned. Minimum Essential Medium (50 µl) supplemented with 25 mM HEPES, 1 g/L additional glucose, 1% MEM non-essential amino acids (100×), 0.2 mM 2-mercaptoethanol, 1 mM Na-pyruvate ([Baltz et al., 1985]) and 15% heat inactivated horse serum was added to each well of a 96-well microtiter plate. Serial drug dilutions of eleven 3-fold dilution steps covering a range from 100 to 0.002 μg/ml were prepared. Then 4 × 10^3 bloodstream forms of T. b. rhodesiense STIB 900 in 50 µL were added to each well and the plate incubated for 70 h at 37°C and under a 5% CO2 atmosphere. 10 µL resazurin solution (resazurin, 12.5 mg in 100 ml double-distilled water) was then added to each well and incubation continued for a further 2–4 h ([Räz et al., 1997]). Plates were read with a Spectramax Gemini XS microplate fluorometer (Molecular Devices Cooperation, Sunnyvale, CA, USA) using an excitation wavelength of 536 nm and an emission wavelength of 588 nm. […] Melarsoprol (Arsobal Sanofi-Aventis, received from WHO) was used as control. Assays were performed in two independent replicates at least.
# [5] = In vitro cytotoxicity with L-6 cells (resazurin); format: cell-based, rat; details: rat; L6 cells, 70 h + 2 h resazurin; mean ± absolute deviation
# Method: Assays were performed in 96-well microtiter plates, each well containing 100 µl of RPMI 1640 medium supplemented with 1% L-glutamine (200 mM) and 10% fetal bovine serum, and 4000 L-6 cells (a primary cell line derived from rat skeletal myoblasts) ([Ahmed et al., 1994]). Serial drug dilutions of 11 three-fold dilution steps covering a range from 100 to 0.002 μg/ml were prepared 24 h post seeding L-6 cells. The plates were incubated for 70 h and inspected under an inverted microscope to assure growth of the controls and sterile conditions. 10 µl of resazurin was then added to each well and the plates incubated for another 2 h. Then the plates were read with a Spectramax Gemini XS microplate fluorometer (Molecular Devices Cooperation, Sunnyvale, CA, USA) using an excitation wavelength of 536 nm and an emission wavelength of 588 nm. The IC50 values were calculated by linear regression and four-parameter logistic regression from the sigmoidal dose inhibition curves using SoftmaxPro software (Molecular Devices Cooperation, Sunnyvale, CA, USA). Podophyllotoxin (Sigma P4405) was used as positive control. All assays were performed in two independent replicates at least. Activities of all compounds were expressed in µM using the formula: […]
# [6] = tested on: P. falciparum NF54 erythrocytic stages; assay: Activity against Plasmodium falciparum (3H-hypoxanthine incorporation); format: cell-based; details: for Selectivity index (SI): IC50 in L6 cells divided by IC50 in P. falciparum: L6 cells vs P. falciparum NF54
# Method: In vitro activity against the erythrocytic stages of P. falciparum was determined using a ^3H-hypoxanthine incorporation assay ([Desjardins et al., 1979]), using the drug sensitive NF54 strain ([Ponnudurai et al., 1981]). Compounds were dissolved in DMSO at 10 mg/ml and further diluted in medium before addition to parasite cultures incubated in RPMI 1640 medium without hypoxanthine, supplemented with HEPES (5.94 g/L), NaHCO3 (2.1 g/L), neomycin (100 U/ml), Albumax^R (5 g/L), and washed human red cells A^+ at 2.5% haematocrit (0.3% parasitemia). Serial drug dilutions of 11 three-fold dilution steps covering a range from 100 to 0.002 μg/ml were prepared. The 96-well plates were incubated in a humidified atmosphere at 37°C; 4% CO2, 3% O2, 93% N2. After 48 h, 50 μl of ^3H-hypoxanthine (=0.5 μCi) was added to each well of the plate. The plates were incubated for a further 24 h under the same conditions. The plates were then harvested with a Betaplate™ cell harvester (Wallac, Zurich, Switzerland), the red blood cells transferred onto a glass fibre filter, and lysed with distilled water. The dried filters were inserted into a plastic foil with 10 ml of scintillation fluid and counted in a Betaplate™ liquid scintillation counter (Wallac, Zurich, Switzerland). IC50 values were calculated from sigmoidal inhibition curves by linear regression using Microsoft Excel. Chloroquine (Sigma C6628) was used as control. Assays were performed in two independent replicates at least.
# [7] = Leishmania donovani, Peritoneal macrophage, amastigotes in mouse peritoneal macrophages
# [8] = Leishmania donovani, pH 5.4, axenic amastigotes, MHOM/ET/67/L82, pH 5.4, 70 h + 2 h resazurin, read-out: IC50 L. donovani Axenic
# [9] = Plasmodium falciparum, NF54, 72 h, NF54 drug sensitive strain, erythrocytic stages, 72 h, mean ± absolute deviation, read-out: IC50 P. falciparum
# [10] = Plasmodium falciparum, NF54, 72 h, read-out: IC50 P. falciparum, NF54 drug sensitive strain, erythrocytic stages, 72 h, mean ± absolute deviation
# [11] = NF54 drug sensitive strain, erythrocytic stages, 72 h, mean ± absolute deviation, read-out: IC50 P. falciparum
Compound,"IC50 [2, 7] [µM]","IC50 [3, 8] [µM]","IC50 ([4]; Trypanosoma brucei, 70 h) [µM]","IC50 [6, 9] [µM]","IC50 ([6]; Plasmodium falciparum, NF54, 72 h, read-out: IC50 P. falciparum) [µM]","IC50 [6, 11] [µM]",IC50 at 96 h [1] [µM],Selectivity index (SI): IC50 in L6 cells divided by IC50 in T. b. rhodesiense [4],IC50 at 70 h [5] [µM],Selectivity index (SI): IC50 in L6 cells divided by IC50 in L. donovani axenic amastigotes [3],Selectivity index (SI): IC50 in L6 cells divided by IC50 in P. falciparum [6],"IC50 ([2]; Leishmania donovani, Peritoneal macrophage) [µM]","IC50 ([3]; Leishmania donovani, pH 5.4, read-out: IC50 L. donovani Axenic, axenic amastigotes, MHOM/ET/67/L82, pH 5.4, 70 h + 2 h resazurin) [µM]","IC50 [6, 10] [µM]",IC50 [4] [µM],IC50 ([2]; amastigotes in mouse peritoneal macrophages) [µM],"IC50 ([3]; axenic amastigotes, MHOM/ET/67/L82, pH 5.4, 70 h + 2 h resazurin, read-out: IC50 L. donovani Axenic)","IC50 P. falciparum ([6]; NF54 drug sensitive strain, erythrocytic stages, 72 h, mean ± absolute deviation)"
"COc1cc(O)c2c(=O)c(OC)c(-c3ccc(OC)c(OC)c3)oc2c1 [Compound 3, Retusin]",> 186,34.1 ± 4.7,> 80,23.4 ± 3.8,,,173,2.6,215 ± 4.7,6.3,9.2,,,,,,,
"COc1ccc(-c2oc3cc(O)cc(O)c3c(=O)c2OC)cc1OC [Compound 1, Quercetin-3,3′,4′-trimethylether]",> 79.9,15 to 22,55.1 ± 13.2,42.1 ± 12.5,,,154 ± 19.3,3.4,,9.8,4.4,,,,,,,
"COc1ccc(C[C@@H]2c3cc(OC)c(OC)cc3CCN2C)cc1O [Compound 8, Laudanine]",,,> 80,,,,> 200,,292,,,> 292,> 150,78.6 ± 0.4,,,,
"CC(=O)O[C@H]1[C@H]2c3c(ccc4c(=O)cc(-c5ccccc5)oc34)O[C@H]2OC1(C)C [Compound 12, (-)-(3′′S,4′′R,5′′S)-Pseudosemiglabrin]",> 84.2,18.9 ± 2.6,37.5 ± 6.1,~20,,16.3 ± 2.7,145 ± 10.5,2.1,,4.1,4.8,,,,,,,
"COc1cc([C@@H]2c3cc4c(cc3[C@H](O)[C@H]3COC(=O)[C@H]23)OCO4)cc(OC)c1OC [Podophyllotoxin, reference compound]",,,,,,,,,0.03 ± 0.005,,,,,,,,,
"(+)-(7S,7′S,8R,8′R)-Pinoresinol [Compound 10]",,,,,,> 140,,2.1,,1.6,,,,,116.8 ± 0.3,> 279,> 150 µM and 151 µM,least active
"COc1ccc(CC2c3cc(OC)c(OC)cc3CCN2C)cc1OC (stereo not shown) [Compound 9, Laudanosine]",> 186,> 150,> 80,,,,> 245,,280,,,,,76.1 ± 21.6,,,,

# More lines, main results first:
"IC50 [2, 7] [µM]","IC50 [3, 8] [µM]","IC50 ([4]; Trypanosoma brucei, 70 h) [µM]","IC50 [6, 9] [µM]","IC50 ([6]; Plasmodium falciparum, NF54, 72 h, read-out: IC50 P. falciparum) [µM]","IC50 [6, 11] [µM]",Compound,IC50 at 96 h [1] [µM],Selectivity index (SI): IC50 in L6 cells divided by IC50 in T. b. rhodesiense [4],IC50 at 70 h [5] [µM],Selectivity index (SI): IC50 in L6 cells divided by IC50 in L. donovani axenic amastigotes [3],Selectivity index (SI): IC50 in L6 cells divided by IC50 in P. falciparum [6],"IC50 ([2]; Leishmania donovani, Peritoneal macrophage) [µM]","IC50 ([3]; Leishmania donovani, pH 5.4, read-out: IC50 L. donovani Axenic, axenic amastigotes, MHOM/ET/67/L82, pH 5.4, 70 h + 2 h resazurin) [µM]","IC50 [6, 10] [µM]",IC50 [4] [µM],IC50 ([2]; amastigotes in mouse peritoneal macrophages) [µM],"IC50 ([3]; axenic amastigotes, MHOM/ET/67/L82, pH 5.4, 70 h + 2 h resazurin, read-out: IC50 L. donovani Axenic)","IC50 P. falciparum ([6]; NF54 drug sensitive strain, erythrocytic stages, 72 h, mean ± absolute deviation)"
6.6 ± 0.3,0.5 ± 0.2,,,,,"CCCCCCCCCCCCCCCCOP(=O)([O-])OCC[N+](C)(C)C [Miltefosine, reference compound]",> 24.1,,,,,,,,,,,
,,,,0.01 ± 0.002,,"CCN(CC)CCCC(C)Nc1ccnc2cc(Cl)ccc12 (stereo not shown) [Chloroquine, reference compound]",,,,,,,,,,,,
> 95.9,8.2 ± 1.6,11.2 ± 0.2,7 to 8,,7.8 ± 0.9,"COc1cc(O)c2c(=O)c(OC)c(-c3ccc(OC)c(O)c3)oc2c1 [Compound 2, Ayanin]",128 ± 3.5,8.9,,12.2,12.9,,,,,,,
> 115,20.8 ± 1.7,36.4 ± 8.7,53.1 ± 7.7,,,"O=c1c(O)c(-c2ccc(O)cc2)oc2cc(O)cc(O)c12 [Compound 13, Kaempferol]",151 ± 18.8,3.1,,5.3,2.1,,,,,,,
> 66.7,4.5 ± 0.3,2.4 ± 0.5,7 to 8,,7.3 ± 0.6,"COc1cc(O)c2c(=O)c(OC)c(-c3ccc(O)c(O)c3)oc2c1 [Compound 6, Quercetin-3,7-dimethylether]",102 ± 49.7,23.2,,12.3,7.6,,,,,,,
